Assay results: the NIST ThermoML archive (doi:10.1021/acs.jced.7b00713)

Experiment: molar heat capacity at constant pressure
Details: Liquid, Flow calorimetry

F/C=C/C(F)(F)F [trans-1,3,3,3-tetrafluoropropene]
Details | molar heat capacity at constant pressure [J/K/mol]
313.46 K, 3000 kPa | 160.8
313.47 K, 3980 kPa | 158.97
313.47 K, 4490 kPa | 157.95
313.48 K, 3490 kPa | 159.89
313.48 K, 5010 kPa | 157.04
313.49 K, 1040 kPa | 165.36
313.49 K, 5490 kPa | 156.58
313.49 K, 6010 kPa | 155.67
313.49 K, 6990 kPa | 153.61
313.49 K, 7470 kPa | 152.93
313.5 K, 1510 kPa | 164.22
313.5 K, 7990 kPa | 152.36
313.51 K, 2010 kPa | 163.08
313.51 K, 6510 kPa | 154.53
313.51 K, 8500 kPa | 151.79
313.52 K, 2480 kPa | 162.4
313.52 K, 8990 kPa | 150.99
313.52 K, 9510 kPa | 150.65
313.53 K, 10000 kPa | 149.96
323.28 K, 3520 kPa | 163.76
323.28 K, 4030 kPa | 162.4
323.29 K, 4530 kPa | 161.25
323.29 K, 4990 kPa | 160.46
323.29 K, 7490 kPa | 155.89
323.29 K, 8010 kPa | 154.75
323.29 K, 8520 kPa | 154.18
323.29 K, 9040 kPa | 153.04
323.31 K, 5490 kPa | 159.66
323.31 K, 7030 kPa | 156.92
323.32 K, 3010 kPa | 164.68
323.32 K, 6010 kPa | 158.63
323.33 K, 1510 kPa | 168.9
323.33 K, 2010 kPa | 167.41
323.33 K, 2500 kPa | 165.93
323.33 K, 6480 kPa | 157.83
323.34 K, 9490 kPa | 152.7
323.36 K, 10010 kPa | 151.79
333.08 K, 1550 kPa | 178.13
333.08 K, 2060 kPa | 175.62
333.11 K, 2510 kPa | 173.69
333.11 K, 3500 kPa | 170.26
333.13 K, 3030 kPa | 172.09
333.13 K, 7490 kPa | 160.8
333.14 K, 8040 kPa | 159.32
333.15 K, 4000 kPa | 169.01
333.15 K, 6520 kPa | 162.4
333.15 K, 7020 kPa | 161.37
333.16 K, 6010 kPa | 163.54
333.16 K, 8500 kPa | 158.75
333.18 K, 4980 kPa | 166.27
333.18 K, 5500 kPa | 164.56
333.19 K, 4500 kPa | 167.76
333.19 K, 9020 kPa | 158.06
333.2 K, 10080 kPa | 155.89
333.21 K, 9510 kPa | 157.38
343.53 K, 2040 kPa | 185.77
343.57 K, 2550 kPa | 183.04
343.57 K, 3000 kPa | 180.3
343.59 K, 3540 kPa | 178.36
343.6 K, 4040 kPa | 175.74
343.61 K, 4540 kPa | 173.23
343.62 K, 5040 kPa | 171.75
343.62 K, 5510 kPa | 169.69
343.62 K, 10070 kPa | 157.61
343.63 K, 9080 kPa | 160
343.63 K, 9530 kPa | 159.09
343.64 K, 6050 kPa | 168.44
343.64 K, 6590 kPa | 166.61
343.64 K, 7070 kPa | 165.25
343.64 K, 7510 kPa | 163.88
343.64 K, 8090 kPa | 162.17
343.65 K, 8480 kPa | 160.91
353.55 K, 2550 kPa | 196.49
353.55 K, 3510 kPa | 188.4
353.58 K, 3040 kPa | 192.05
353.61 K, 5010 kPa | 178.36
353.61 K, 5510 kPa | 176.54
353.62 K, 6040 kPa | 175.17
353.64 K, 4520 kPa | 181.44
353.64 K, 6530 kPa | 173.69
353.64 K, 7050 kPa | 172.54
353.65 K, 7500 kPa | 171.63
353.65 K, 7970 kPa | 170.72
353.66 K, 4050 kPa | 184.52
353.67 K, 8480 kPa | 170.04
353.68 K, 9030 kPa | 168.67
353.68 K, 9510 kPa | 168.21
353.68 K, 10090 kPa | 166.96
363.56 K, 3500 kPa | 207.67
363.56 K, 4000 kPa | 200.03
363.57 K, 3000 kPa | 219.53
363.61 K, 4510 kPa | 194.78
363.61 K, 5520 kPa | 186.46
363.62 K, 4990 kPa | 190.34
363.63 K, 6020 kPa | 182.81
363.64 K, 6520 kPa | 180.19
363.64 K, 6990 kPa | 177.33
363.64 K, 7530 kPa | 175.05
363.64 K, 8010 kPa | 173.12
363.65 K, 8530 kPa | 171.4
363.65 K, 9050 kPa | 170.15
363.66 K, 9450 kPa | 169.01
363.66 K, 9990 kPa | 167.76
373.35 K, 3540 kPa | 259.44
373.42 K, 4030 kPa | 231.73
373.42 K, 4510 kPa | 216.91
373.43 K, 5010 kPa | 206.42
373.44 K, 5540 kPa | 199.23
373.47 K, 6020 kPa | 194.1
373.48 K, 7010 kPa | 185.66
373.49 K, 6530 kPa | 189.54
373.49 K, 7500 kPa | 183.04
373.5 K, 8030 kPa | 179.62
373.51 K, 8510 kPa | 177.45
373.56 K, 9050 kPa | 175.4
373.57 K, 9430 kPa | 174.48
373.59 K, 9990 kPa | 172.66
391.65 K, 4520 kPa | 525.5
392.2 K, 5020 kPa | 310.99
392.38 K, 5470 kPa | 257.73
392.46 K, 6010 kPa | 226.37
392.52 K, 6540 kPa | 210.06
392.57 K, 7060 kPa | 200.6
392.6 K, 7560 kPa | 194.55
392.63 K, 8030 kPa | 191.02
392.67 K, 8510 kPa | 189.88
392.72 K, 9070 kPa | 188.05
392.75 K, 10000 kPa | 187.03
392.77 K, 9520 kPa | 188.51
392.77 K, 10010 kPa | 187.48
